Measurements: PMC12867150, “A fungi-derived cyclic peptide enhances Th9-mediated antitumor immunity by targeting ZAP70 and SREBP1” (The Journal of Clinical Investigation, 2025)

What was measured:
IL-6 = assay: Serum IL-6 by ELISA after ACT (S1B); format: in vivo, mouse; conditions: for IL-6 of blood from mouse: Supplemental Figure 1B
Description: Peripheral blood was collected from mouse tail veins at predefined time points in the tumor model. Samples were allowed to clot at 4°C for 1 hour and were then centrifuged at 600g for 25 minutes to obtain serum. Serum IL-6 levels were measured using an ELISA kit (Invitrogen; catalog 88-7064) according to the manufacturer’s instructions.
Days after ACT Days after ACT
Figure S1. EpA enhances immune responses. […]
Serum IL-6 levels after ACT, measured by ELISA on days 5, 10, 15, and 20. (C–E) […]
Statistical analysis was performed using two-way ANOVA with Tukey’s post hoc test (A), one-way ANOVA with Tukey’s post hoc test (B) or two-tailed unpaired Student’s t-test (D and G–M). ns, not significant. *p < 0.05, **p < 0.01, ****p < 0.0001.
(also on this page, place not known: Mouse weight (g) CtrlEpA CtrlEpA CtrlEpA0 I CD45.1+ T cells (%) CtrlEpA CD4+ T cells (%) CtrlEpA CtrlEpA CtrlEpA FSC CD8 CD8 FSC FSC FSC BNumber of CD45.1+ T cells (×103 per mgĎ Number of CD4+ T cells (×104 per mgĎ DC (%)NK cells (%) NK cells (%) DC (%) Number of DC (×103 per mg) Number of NK cells (×105) Number of NK cells (×103 per mg) Number of DC (×105) FSC FSC FSC CD8 CtrlEpA CtrlEpA CtrlEpA CD8+ T cells (%) Number of CD8+ T cells (×104 per mgĎ nsns ns nsns ns 40 IL-6 (pg/ml))

human Th9 CAR T cells [1] = assay: Intracellular ATP of human Th9 CAR T cells (S9F); format: cell-based; conditions: result in words
Description: Intracellular adenosine triphosphate (ATP) levels were measured using a chemiluminescent ATP assay kit (Beyotime, catalog S0026) according to the manufacturer’s protocol. Briefly, cells were lysed and incubated with the luciferase-based detection reagent, and the resulting luminescent signal was detected using an Infinite M200 multimode microplate reader (TECAN). ATP concentrations were calculated based on a standard curve and normalized to cell number or protein content where applicable.
Ct EpA Fat Fat Ct EpA Fat Fat
(A) Flow-cytometric analysis of intracellular IL-9 expression in human Th9 cells […]
(B) Flow-cytometric assessment of mitochondrial mass using Mito Tracker in human Th9 cells treated as in (A) (n = 3).
(§1) (C) Flow-cytometric analysis of infection efficiency in Th9 cells transduced with a CD19-directed CAR lentivirus. (D and E) Flow-cytometric analysis of IL-9 expression in human Th9 CAR-T cells on days 5 and 6 of in vitro differentiation, showing representative plots (D) and quantification (E) (n = 3). […]
(G) Flow-cytometric analysis of mitochondrial mass using Mito Tracker in human Th9 CAR-T c e l l s (n = 3). (H and I) Flow-cytometric analysis of granzyme B⁺ CAR-Th9 cells isolated from spleens after adoptive transfer, showing representative plots (H) and quantification (I) (n = 5 mice per group). […]

human Th9 CAR T cells [2] = assay: IL-9 in human Th9 CAR T cells (S9D-E); format: cell-based; conditions: for IL-9 expression in human Th9 CAR-T cells: Supplemental Figure 9E; for IL-9 gate number: representative flow plot, Figure S9D
From the text: Details regarding staining panels (human and mouse), reagents (including clones and catalog numbers), acquisition settings, compensation/controls, and analysis procedures are provided in Supplemental Methods. […]
as §1
(H) and quantification (I) (n = 5 mice per group). Statistical analysis was performed using one-way ANOVA with Tukey’s post hoc test (A and B), or two-tailed unpaired Student’s t-test (E–G, and I). Repeated data are presented as mean ± SEM. *p < 0.05, […]
(also on this page, place not known: TP cells ANOV A 30IL-9+ cells (%) Fato Fato Fato Fato A SSC GzmB CtrlEpA MFIofMitoTracker (×102) GF NormalizedATPlevel CtrlEpA 4MFI of Mito Tracker (×105) CtrlEpA0 GzmB+ cells (%) CD4 10 20 IL-9+ cells (%) Day60 10 20 30 Ctrl) […]

[3] = system: chromatin accessibility in Th9 cells; assay: Bulk ATAC-seq of Th9 cells (Figure 3C, S3E); format: cell-based, mouse; conditions: result in words
From the text: Raw FASTQ reads were subjected to quality control using Trim Galore to remove adapter sequences and low-quality bases. Cleaned reads were aligned to the GRCm38 mouse reference genome using Bowtie2. Low-quality alignments were filtered out using SAMtools, and PCR duplicates were removed using Sambamba to reduce technical artifacts. ENCODE blacklist regions were excluded using BEDtools. Read positions were adjusted using alignmentSieve, followed by sorting and indexing with SAMtools to generate BAM files. Peak calling was conducted using MACS3 to identify regions of open chromatin indicative of accessible regulatory elements.

anteiso-C15 Leu7 surfactin [EpA]
IL-6 of blood from mouse (IL-6; Day5, replicate 1): 26.4444 pg/mL
IL-6 of blood from mouse (IL-6; Day5, replicate 2): 18 pg/mL
IL-6 of blood from mouse (IL-6; Day5, replicate 3): 22.6667 pg/mL
IL-6 of blood from mouse (IL-6; Day5, replicate 4): 28 pg/mL
IL-6 of blood from mouse (IL-6; Day10, replicate 1): 22.6667 pg/mL
IL-6 of blood from mouse (IL-6; Day10, replicate 2): 21.3333 pg/mL
IL-6 of blood from mouse (IL-6; Day10, replicate 3): 24.2222 pg/mL
IL-6 of blood from mouse (IL-6; Day10, replicate 4): 22 pg/mL
IL-6 of blood from mouse (IL-6; Day15, replicate 1): 19.5556 pg/mL
IL-6 of blood from mouse (IL-6; Day15, replicate 2): 16 pg/mL
IL-6 of blood from mouse (IL-6; Day15, replicate 3): 11.3333 pg/mL
IL-6 of blood from mouse (IL-6; Day15, replicate 4): 20 pg/mL
IL-6 of blood from mouse (IL-6; Day20, replicate 1): 21.7778 pg/mL
IL-6 of blood from mouse (IL-6; Day20, replicate 2): 14.8889 pg/mL
IL-6 of blood from mouse (IL-6; Day20, replicate 3): 14.4445 pg/mL
IL-6 of blood from mouse (IL-6; Day20, replicate 4): 26.8889 pg/mL
serum IL-6 levels (IL-6; EpA-Th9 therapy vs control, result in words): No significant differences
ATP output, Th9 CAR T (human Th9 CAR T cells [1]): elevated
IL-9 expression in human Th9 CAR-T cells (human Th9 CAR T cells [2]; Day5, replicate 1): 27.7
IL-9 expression in human Th9 CAR-T cells (human Th9 CAR T cells [2]; Day5, replicate 2): 21.8
IL-9 expression in human Th9 CAR-T cells (human Th9 CAR T cells [2]; Day5, replicate 3): 25.1
IL-9 gate number (human Th9 CAR T cells [2]; Day5): 24.8
IL-9 expression in human Th9 CAR-T cells (human Th9 CAR T cells [2]; Day6, replicate 1): 6.55
IL-9 expression in human Th9 CAR-T cells (human Th9 CAR T cells [2]; Day6, replicate 2): 6.68
IL-9 expression in human Th9 CAR-T cells (human Th9 CAR T cells [2]; Day6, replicate 3): 6.84
IL-9 gate number (human Th9 CAR T cells [2]; Day6): 6.7
IL-9 production, Th9 CAR T (human Th9 CAR T cells [2]; result in words): increased IL-9 production
Ifng accessibility and expression [3]: further reduced
Il9 locus accessibility and transcription [3]: increased accessibility and transcription
global chromatin accessibility [3]: only modestly affected
